In ChEMBL document CHEMBL1131868, “Alpha-trifluoromethylated acyloins induce apoptosis in human oral tumor cell lines” (1999):
Structures can show the parent of a compound that is named as a salt.

Tests used:
Format in all cases: functional
[1] = In vitro cytotoxic activity against human salivary gland tumor (HSG) cells.
[2] = In vitro cytotoxic activity against human squamous cell carcinoma (HSC-2) cells.
[3] = In vitro cytotoxic activity against human gingival fibroblasts (HGF).

With `CCCCCCC(=O)C(O)C(F)(F)F` (centres undefined) the CC50 [1] was 220 µM, the CC50 [2] was 90 µM and the CC50 [3] was 0.79 mM.

With `O=C(NCCCC(=O)C(O)C(F)(F)F)c1ccccc1` (centres undefined) the CC50 [1] was 400 µM, the CC50 [2] was 31 µM and the CC50 [3] was 0.42 mM.

`O=C(Cc1nc2ccccc2o1)C(F)(F)F` gave a CC50 [1] of 79 µM, a CC50 [2] of 43 µM and a CC50 [3] of 0.63 mM.

For `O=C(Cc1nc2ccccc2s1)C(F)(F)F`, the CC50 [1] was 390 µM, the CC50 [2] was 150 µM and the CC50 [3] was 0.43 mM.

`O=C(OC1c2ccccc2-c2ccccc21)N1C=C(C(=O)C(F)(F)F)CC1` showed a CC50 [1] of 180 µM, a CC50 [2] of 140 µM and a CC50 [3] of 0.23 mM.

For `O=C(c1c[nH]c2ccccc12)C(F)(F)F`, the CC50 [1] was 1300 µM, the CC50 [2] was 94 µM and the CC50 [3] was 2 mM.

With `O=C(CC(=O)C(F)(F)F)c1ccccc1` the CC50 [1] was 420 µM, the CC50 [2] was 150 µM and the CC50 [3] was 1.4 mM.

In the case of `OC(Cc1ccccc1)C(F)(F)F` (centres undefined), the CC50 [1] is reported as 1300 µM, the CC50 [2] is reported as 460 µM and the CC50 [3] is reported as 1.7 mM.

With `O=C(C(=O)C(F)(F)F)c1ccccc1` the CC50 [1] was 390 µM, the CC50 [2] was 79 µM and the CC50 [3] was 0.51 mM.

`O=C(Oc1ccccc1)N1C=C(C(=O)C(F)(F)F)CC1` showed a CC50 [1] of 270 µM, a CC50 [2] of 230 µM and a CC50 [3] of 0.62 mM.

With `CC(=O)C(O)c1ccccc1` (centres undefined) the CC50 [1] was 2900 µM, the CC50 [2] was 1700 µM and the CC50 [3] was 3.2 mM.

Compound `COc1cccc2c1C(=O)c1c(O)c3c(c(O)c1C2=O)C[C@@](O)(C(=O)CO)C[C@@H]3O[C@H]1C[C@H](N)[C@H](O)[C@H](C)O1` [DOXORUBICIN HYDROCHLORIDE] has a CC50 [2] of 4.1 µM.

For `O=C(Cc1ccccc1)C(O)C(F)(F)F` (centres undefined), the CC50 [1] was 110 µM, the CC50 [2] was 22 µM and the CC50 [3] was 0.31 mM.

In the case of `O=C(c1ccc[nH]1)C(F)(F)F`, the CC50 [1] is reported as 1800 µM, the CC50 [2] is reported as 870 µM and the CC50 [3] is reported as 2.1 mM.

`O=C(c1nc2ccccc2o1)C(F)(F)F` showed a CC50 [1] of 1700 µM, a CC50 [2] of 580 µM and a CC50 [3] of 2.2 mM.

`O=C(c1ccccc1)C(O)C(F)(F)F` (centres undefined) gave a CC50 [1] of 240 µM, a CC50 [2] of 36 µM and a CC50 [3] of 1.3 mM.

With `CC(=O)CC(=O)C(F)(F)F` the CC50 [1] was 3200 µM, the CC50 [2] was 2500 µM and the CC50 [3] was > 3.2 mM.

With `O=C(c1ccccc1)C(F)(F)F` the CC50 [1] was 2700 µM, the CC50 [2] was > 2900 µM and the CC50 [3] was > 2.9 mM.

For `O=C(c1cccs1)C(F)(F)F`, the CC50 [1] was 2700 µM, the CC50 [2] was 1900 µM and the CC50 [3] was > 2.8 mM.

In the case of `COC(=O)CC(=O)C(F)(F)F`, the CC50 [1] is reported as 1800 µM, the CC50 [2] is reported as 1300 µM and the CC50 [3] is reported as > 2.9 mM.

`O=C(CC(O)C(F)(F)F)c1ccccc1` (centres undefined) gave a CC50 [1] of 1500 µM, a CC50 [2] of 240 µM and a CC50 [3] of 1.7 mM.

`C=CCOC(=O)N1C=C(C(=O)C(F)(F)F)CC1` showed a CC50 [1] of 240 µM, a CC50 [2] of 110 µM and a CC50 [3] of 0.14 mM.

`O=C(Cc1ccccn1)C(F)(F)F` gave a CC50 [1] of 1600 µM, a CC50 [2] of 620 µM and a CC50 [3] of 2.1 mM.

In the case of `Cc1nc(CC(=O)C(F)(F)F)oc1C`, the CC50 [1] is reported as 150 µM, the CC50 [2] is reported as < 68 µM and the CC50 [3] is reported as 0.077 mM.

`OC(c1ccccc1)C(F)(F)F` (centres undefined) gave a CC50 [1] of 2100 µM, a CC50 [2] of 1100 µM and a CC50 [3] of 2.2 mM.

`O=C(Cc1ccccc1)C(F)(F)F` showed a CC50 [1] of 1600 µM, a CC50 [2] of 1400 µM and a CC50 [3] of 2.2 mM.

Compound `O=C(Cc1nc2ccccc2[nH]1)C(F)(F)F` has a CC50 [1] of 340 µM, a CC50 [2] of 53 µM and a CC50 [3] of 0.2 mM.
